From patent EP1247803A2, “Indolinone compounds suitable for modulation of protein kinases” (Sugen, Inc., priority 1996, dated 1998)

Legend:
FLK-1 receptor = molecular target: T1, FLK-1 receptor (Mus musculus, UniProt P35918); assay: FLK-1 ELISA (kinase activity of the FLK-1 receptor in FLK-1/NIH3T3 cells, VEGF stimulated); type: cell-based; set-up: concentration or dose not given beside the values
T1 construct: expressed in transfected cells; host or cells: NIH3T3 C7#3
Summary of the method: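 An ELISA using affinity-purified rabbit anti-FLK-1 antiserum on anti-rabbit IgG-coated plates measured VEGF-stimulated FLK-1 kinase activity. NIH3T3 C7#3 cells carrying FLK-1 were serum-starved (0.1% FBS) overnight, then exposed to compound (final 1:200 dilution, 0.5% DMSO) for two hours at 37 °C.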

PDGF-R = PDGF-R (Homo sapiens, UniProt P09619); assay: PDGF-R ELISA; type: cell-based
Chain of PDGF-R (P09619 33-1106, species assumed): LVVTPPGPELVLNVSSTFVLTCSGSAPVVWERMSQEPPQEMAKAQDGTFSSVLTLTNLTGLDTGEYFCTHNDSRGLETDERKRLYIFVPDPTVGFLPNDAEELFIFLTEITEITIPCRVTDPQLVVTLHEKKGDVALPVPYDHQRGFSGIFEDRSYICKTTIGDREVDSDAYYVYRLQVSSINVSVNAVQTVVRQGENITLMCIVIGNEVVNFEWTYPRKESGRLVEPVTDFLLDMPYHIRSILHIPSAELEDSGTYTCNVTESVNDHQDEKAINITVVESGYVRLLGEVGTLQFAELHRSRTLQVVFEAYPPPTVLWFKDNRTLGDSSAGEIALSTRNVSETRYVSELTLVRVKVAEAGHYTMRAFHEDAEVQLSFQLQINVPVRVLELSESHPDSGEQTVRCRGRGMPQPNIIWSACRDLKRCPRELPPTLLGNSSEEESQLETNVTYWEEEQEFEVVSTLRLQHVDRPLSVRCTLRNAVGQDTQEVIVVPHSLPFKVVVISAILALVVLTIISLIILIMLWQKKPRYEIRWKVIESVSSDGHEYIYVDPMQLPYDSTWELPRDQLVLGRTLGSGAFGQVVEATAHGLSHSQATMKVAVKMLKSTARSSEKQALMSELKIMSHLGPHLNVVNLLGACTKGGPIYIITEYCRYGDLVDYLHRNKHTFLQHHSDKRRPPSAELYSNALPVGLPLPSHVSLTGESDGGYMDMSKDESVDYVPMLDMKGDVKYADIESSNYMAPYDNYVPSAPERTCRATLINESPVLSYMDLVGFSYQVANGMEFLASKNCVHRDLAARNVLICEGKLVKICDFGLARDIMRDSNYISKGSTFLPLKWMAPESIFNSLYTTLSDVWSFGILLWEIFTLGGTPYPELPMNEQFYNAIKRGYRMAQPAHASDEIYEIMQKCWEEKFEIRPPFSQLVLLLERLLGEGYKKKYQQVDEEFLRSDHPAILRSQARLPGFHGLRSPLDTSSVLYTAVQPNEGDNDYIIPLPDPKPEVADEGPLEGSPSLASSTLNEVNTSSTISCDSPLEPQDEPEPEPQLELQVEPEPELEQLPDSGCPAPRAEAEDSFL
Description: A PDGF-R ELISA is described in International Patent Publication No. WO 96/40116, published December 19, 1996 by Tang et al.

T1 sequence (P35918 20-1345): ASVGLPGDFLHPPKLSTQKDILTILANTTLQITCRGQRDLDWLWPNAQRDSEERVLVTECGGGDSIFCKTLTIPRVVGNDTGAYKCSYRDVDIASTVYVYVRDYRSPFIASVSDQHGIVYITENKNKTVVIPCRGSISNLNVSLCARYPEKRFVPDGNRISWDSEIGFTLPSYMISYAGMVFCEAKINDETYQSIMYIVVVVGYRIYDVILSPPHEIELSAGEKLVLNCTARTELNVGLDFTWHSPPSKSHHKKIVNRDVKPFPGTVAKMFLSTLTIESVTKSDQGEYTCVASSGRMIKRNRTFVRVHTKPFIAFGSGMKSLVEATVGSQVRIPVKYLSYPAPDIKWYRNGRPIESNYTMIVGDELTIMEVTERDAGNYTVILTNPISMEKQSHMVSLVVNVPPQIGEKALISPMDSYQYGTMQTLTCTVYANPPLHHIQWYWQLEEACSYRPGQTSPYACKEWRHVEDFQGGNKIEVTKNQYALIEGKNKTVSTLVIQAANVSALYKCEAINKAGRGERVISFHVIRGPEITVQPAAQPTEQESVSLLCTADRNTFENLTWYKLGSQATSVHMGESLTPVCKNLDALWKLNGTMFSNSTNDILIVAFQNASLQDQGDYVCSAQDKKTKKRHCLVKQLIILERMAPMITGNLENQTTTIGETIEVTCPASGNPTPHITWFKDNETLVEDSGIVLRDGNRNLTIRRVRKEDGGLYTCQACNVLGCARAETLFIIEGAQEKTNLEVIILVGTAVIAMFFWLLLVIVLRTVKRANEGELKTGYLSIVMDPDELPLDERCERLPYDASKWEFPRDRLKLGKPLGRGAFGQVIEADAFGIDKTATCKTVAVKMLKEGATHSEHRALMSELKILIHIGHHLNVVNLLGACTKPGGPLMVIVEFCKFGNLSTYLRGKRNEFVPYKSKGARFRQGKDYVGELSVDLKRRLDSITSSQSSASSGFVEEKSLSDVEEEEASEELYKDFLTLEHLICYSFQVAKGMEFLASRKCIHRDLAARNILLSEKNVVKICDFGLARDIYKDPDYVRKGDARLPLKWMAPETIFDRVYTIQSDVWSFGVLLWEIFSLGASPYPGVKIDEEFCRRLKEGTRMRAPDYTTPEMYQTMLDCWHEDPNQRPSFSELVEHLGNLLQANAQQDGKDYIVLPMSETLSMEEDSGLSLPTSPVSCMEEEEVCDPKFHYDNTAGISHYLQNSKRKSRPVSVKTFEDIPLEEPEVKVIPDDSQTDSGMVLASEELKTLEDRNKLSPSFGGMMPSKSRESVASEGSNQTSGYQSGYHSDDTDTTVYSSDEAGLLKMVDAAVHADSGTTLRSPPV

Row | SMILES | Fik Kinase %Inhibition (FLK-1 receptor) [%] | PDGF Kinase %Inhibition (PDGF-R) [%]
1 | O=C1Nc2c(Br)cc(Br)cc2C1=Cc1ccc[nH]1 [10717/A09] | -3.9 | –
2 | CCOC(=O)CCc1c(C(=O)OCC)[nH]c(C=C2C(=O)Nc3ccc(Br)c(C)c32)c1CC(=O)OCC [10718/C05] | 20.5 | –
3 | CCOC(=O)c1cc(C=C2C(=O)Nc3ccc(Br)c(C)c32)oc1C [10718/C06] | 16.8 | –
4 | COC(=O)c1[nH]c(C)c(C=C2C(=O)Nc3ccc(Br)c(C)c32)c1C(=O)OC [10718/C07] | 6.3 | –
5 | Cc1c(Br)ccc2c1C(=Cc1ccc(Cl)c([N+](=O)[O-])c1)C(=O)N2 [10718/C08] | 19.6 | –
6 | Cc1c(O)ccc(C=C2C(=O)Nc3ccc(Br)c(C)c32)c1O [10718/C09] | 5.3 | –
7 | O=C1Nc2ccc(S(=O)(=O)N3CCOCC3)cc2C1=Cc1coc2c(Br)cc(Br)cc2c1=O [10730/F09] | 14.4 | 13.3
8 | COC1CC(C=C2C(=O)Nc3ccc(S(=O)(=O)N4CCOCC4)cc32)C(OC)O1 (centres unmarked) [10730/F10] | 13.4 | 1.9
9 | Cc1cc(C=C2C(=O)Nc3ccc(S(=O)(=O)N4CCOCC4)cc32)oc1C [10730/F11] | -1.3 | 4.5
10 | COc1ccc(C=C2C(=O)Nc3ccc(CCCl)cc32)c(OC)c1OC [10730/G02] | 23.3 | 18.1
11 | COc1cc(OC)c(OC)cc1C=C1C(=O)Nc2ccc(CCCl)cc21 [10730/G03] | 15.2 | 44.0
12 | COc1cc(C=C2C(=O)Nc3ccc(CCCl)cc32)cc(OC)c1OC [10730/G04] | 7.4 | 21.6
13 | CC(=O)n1cc(C=C2C(=O)Nc3ccc(CCCl)cc32)c2ccccc21 [10730/G05] | 22.3 | 65.0
14 | O=C1Nc2ccc(CCCl)cc2C1=Cc1ccc(-c2ccccc2Cl)o1 [10730/G07] | 8.3 | 19.9
15 | O=C1Nc2ccc(CCCl)cc2C1=Cc1cc2ccccc2nc1Cl [10730/G08] | 23.3 | 20.3
16 | COC1CC(C=C2C(=O)Nc3ccc(CCCl)cc32)C(OC)O1 (centres unmarked) [10730/G10] | 11.3 | 22.1
17 | Cc1cc(C=C2C(=O)Nc3ccc(CCCl)cc32)oc1C [10730/G11] | -1.4 | -0.3
18 | CCn1c2ccccc2c2cc(C=C3C(=O)Nc4c(Br)cc(Br)cc43)ccc21 [10731/A02] | 2.7 | -3.9
19 | Cc1cc2occ(C=C3C(=O)Nc4c(Br)cc(Br)cc43)c(=O)c2cc1C [10731/A03] | 2.5 | 7.5
20 | C=C(C)C1CC=C(C=C2C(=O)Nc3c(Br)cc(Br)cc32)CC1 (centres unmarked) [10731/A04] | 5.0 | 5.1
21 | CC(C)c1ccc2occ(C=C3C(=O)Nc4c(Br)cc(Br)cc43)c(=O)c2c1 [10731/A05] | -6.5 | 14.1
22 | Cc1ccc2occ(C=C3C(=O)Nc4c(Br)cc(Br)cc43)c(=O)c2c1 [10731/A06] | -5.5 | 1.3
23 | O=C1Nc2c(Br)cc(Br)cc2C1=Cc1coc2ccc([N+](=O)[O-])cc2c1=O [10731/A07] | -4.3 | 4.6

Row | SMILES | Fik Kinase %Inhibition (FLK-1 receptor) [%] | PDGF Kinase %Inhibition (PDGF-R) [%]
24 | O=C1Nc2c(Br)cc(Br)cc2C1=Cc1c[nH]c(=O)[nH]c1=O [10731/A08] | -13.8 | -2.5
25 | COc1ccc2[nH]cc(C=C3C(=O)Nc4c(Br)cc(Br)cc43)c2c1 [10731/A09] | -2.7 | -14.4
26 | CN1C(=O)C(=C2C(=O)Nc3c(Br)cc(Br)cc32)c2ccccc21 [10731/A10] | -5.3 | -3.5
27 | CCn1c2ccccc2c2cc(C=C3C(=O)Nc4ccc(I)cc43)ccc21 [10731/B02] | 6.5 | 13.2
28 | Cc1cc2occ(C=C3C(=O)Nc4ccc(I)cc43)c(=O)c2cc1C [10731/B03] | 1.9 | 9.9
29 | C=C(C)C1CC=C(C=C2C(=O)Nc3ccc(I)cc32)CC1 (centres unmarked) [10731/B04] | 12.0 | 0.3
30 | CC(C)c1ccc2occ(C=C3C(=O)Nc4ccc(I)cc43)c(=O)c2c1 [10731/B05] | 3.8 | 17.9
31 | Cc1ccc2occ(C=C3C(=O)Nc4ccc(I)cc43)c(=O)c2c1 [10731/B06] | 6.2 | 5.6
32 | O=C1Nc2ccc(I)cc2C1=Cc1coc2ccc([N+](=O)[O-])cc2c1=O [10731/B07] | 11.7 | 6.0
33 | O=C1Nc2ccc(I)cc2C1=Cc1c[nH]c(=O)[nH]c1=O [10731/B08] | 6.2 | -23.4
34 | COc1ccc2[nH]cc(C=C3C(=O)Nc4ccc(I)cc43)c2c1 [10731/B09] | -0.5 | 0.3
35 | CN1C(=O)C(=C2C(=O)Nc3ccc(I)cc32)c2ccccc21 [10731/B10] | 1.3 | 4.6
36 | CCn1c2ccccc2c2cc(C=C3C(=O)Nc4ccc(Br)c(C)c43)ccc21 [10731/C02] | 3.1 | -2.5
37 | Cc1cc2occ(C=C3C(=O)Nc4ccc(Br)c(C)c43)c(=O)c2cc1C [10731/C03] | 4.5 | 11.3
38 | C=C(C)C1CC=C(C=C2C(=O)Nc3ccc(Br)c(C)c32)CC1 (centres unmarked) [10731/C04] | 10.5 | 15.1
39 | Cc1c(Br)ccc2c1C(=Cc1coc3ccc(C(C)C)cc3c1=O)C(=O)N2 [10731/C05] | 14.9 | 22.7
40 | Cc1ccc2occ(C=C3C(=O)Nc4ccc(Br)c(C)c43)c(=O)c2c1 [10731/C06] | 13.8 | 7.0
41 | Cc1c(Br)ccc2c1C(=Cc1coc3ccc([N+](=O)[O-])cc3c1=O)C(=O)N2 [10731/C07] | 70.4 | 31.3
42 | Cc1c(Br)ccc2c1C(=Cc1c[nH]c(=O)[nH]c1=O)C(=O)N2 [10731/C08] | 10.2 | -3.0
43 | COc1ccc2[nH]cc(C=C3C(=O)Nc4ccc(Br)c(C)c43)c2c1 [10731/C09] | 15.1 | -6.3
44 | Cc1c(Br)ccc2c1C(=C1C(=O)N(C)c3ccccc31)C(=O)N2 [10731/C10] | 19.7 | 6.5
45 | CCn1c2ccccc2c2cc(C=C3C(=O)Nc4ccc(S(=O)(=O)NC)cc43)ccc21 [10731/D02] | -8.4 | 17.9
46 | CNS(=O)(=O)c1ccc2c(c1)C(=Cc1coc3cc(C)c(C)cc3c1=O)C(=O)N2 [10731/D03] | 17.3 | 28.4
